{
  "source": "ChEMBL document CHEMBL1134238",
  "about": "“Synthesis of metabolically blocked paclitaxel analogues” (Bioorg Med Chem Lett, 2001)",
  "key": {"HCT-116": {"system": "HCT-116", "experiment": "Compound was tested for cytotoxicity against human colon tumor cell line (HCT116)", "assay_type": "functional, cell-based"}, "[1]": {"biological_target": "Tubulin alpha chain (Sus scrofa) (UniProt P02550)", "sequence (P02550 whole entry, looked up)": "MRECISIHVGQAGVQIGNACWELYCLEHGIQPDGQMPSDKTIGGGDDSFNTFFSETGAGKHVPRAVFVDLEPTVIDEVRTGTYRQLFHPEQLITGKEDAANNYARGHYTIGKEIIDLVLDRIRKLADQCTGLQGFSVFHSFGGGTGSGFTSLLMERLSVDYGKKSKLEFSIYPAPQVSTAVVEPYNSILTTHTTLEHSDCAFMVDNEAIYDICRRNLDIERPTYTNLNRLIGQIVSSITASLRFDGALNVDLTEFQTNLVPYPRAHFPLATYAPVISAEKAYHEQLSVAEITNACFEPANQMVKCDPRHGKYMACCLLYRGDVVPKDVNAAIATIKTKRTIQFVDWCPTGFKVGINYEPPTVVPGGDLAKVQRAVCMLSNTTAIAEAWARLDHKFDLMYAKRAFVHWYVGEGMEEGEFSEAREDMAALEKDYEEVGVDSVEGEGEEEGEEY", "experiment": "Compound was tested in vitro for inhibition of tubulin polymerization, expressed as ratio to that obtained for paclitaxel", "assay_type": "functional", "settings": "Homo sapiens"}, "M109 [2]": {"system": "M109", "experiment": "Compound was tested in vivo against M109 using Madison murine lung carcinoma (M109) tumor model at 200 mg/kg", "assay_type": "functional, Mus musculus"}, "M109 [3]": {"system": "M109", "experiment": "Compound was tested in vivo against M109 using Madison murine lung carcinoma (M109) tumor model at 40 mg/kg", "assay_type": "functional, Mus musculus"}, "M109 [4]": {"system": "M109", "experiment": "Compound was tested in vivo against M109 using Madison murine lung carcinoma (M109) tumor model at 32 mg/kg", "assay_type": "functional, Mus musculus"}},
  "data": [
    {"smiles": "CC(=O)O[C@H]1C(=O)[C@@]2(C)C([C@H](OC(=O)c3ccccc3)[C@]3(O)C[C@H](OC(=O)[C@H](O)[C@@H](NC(=O)c4ccccc4)c4ccccc4)C(C)=C1C3(C)C)[C@]1(OC(C)=O)CO[C@@H]1[C@@H](F)[C@@H]2O", "note": "(some centres undefined)", "values": [
      {"measurement": "IC50", "setting": "HCT-116", "value": 1.4, "unit": "nM"},
      {"measurement": "Tubulin polymerization", "setting": "[1]", "value": 1}
    ]},
    {"smiles": "CC(=O)O[C@H]1C(=O)[C@@]2(C)C([C@H](OC(=O)c3ccccc3)[C@]3(O)C[C@H](OC(=O)[C@H](O)[C@@H](NC(=O)OC(C)(C)C)c4ccccc4)C(C)=C1C3(C)C)[C@]1(OC(C)=O)CO[C@@H]1[C@@H](F)[C@@H]2O", "note": "(some centres undefined)", "values": [
      {"measurement": "IC50", "setting": "HCT-116", "value": 0.2, "unit": "nM"},
      {"measurement": "Tubulin polymerization", "setting": "[1]", "value": 0.6}
    ]},
    {"smiles": "CC(=O)O[C@H]1C(=O)[C@@]2(C)C([C@H](OC(=O)c3ccccc3)[C@]3(O)C[C@H](OC(=O)[C@H](O)[C@@H](NC(=O)c4ccccc4)c4ccccc4)C(C)=C1C3(C)C)[C@]1(OC(C)=O)CO[C@@H]1[C@@H](Cl)[C@@H]2O", "note": "(some centres undefined)", "values": [
      {"measurement": "T/C", "setting": "M109 [2]", "value": 203, "unit": "%"},
      {"measurement": "IC50", "setting": "HCT-116", "value": 1.2, "unit": "nM"},
      {"measurement": "Tubulin polymerization", "setting": "[1]", "value": 0.8}
    ]},
    {"smiles": "CC(=O)O[C@H]1C(=O)[C@@]2(C)[C@H]([C@H](OC(=O)c3ccccc3)[C@]3(O)C[C@H](OC(=O)[C@H](O)[C@@H](NC(=O)c4ccccc4)c4ccccc4)C(C)=C1C3(C)C)[C@]1(OC(C)=O)CO[C@@H]1C[C@@H]2O", "note": "[PACLITAXEL]", "values": [
      {"measurement": "T/C", "setting": "M109 [3]", "value": 215, "unit": "%"},
      {"measurement": "Tubulin polymerization", "setting": "[1]", "value": 1}
    ]},
    {"smiles": "CC(=O)O[C@H]1C(=O)[C@@]2(C)C([C@H](OC(=O)c3ccccc3)[C@]3(O)C[C@H](OC(=O)[C@H](O)[C@@H](NC(=O)OC(C)(C)C)c4ccccc4)C(C)=C1C3(C)C)[C@]1(OC(C)=O)CO[C@@H]1C[C@@H]2O", "note": "(some centres undefined)", "values": [
      {"measurement": "T/C", "setting": "M109 [4]", "value": 177, "unit": "%"},
      {"measurement": "IC50", "setting": "HCT-116", "value": 1.8, "unit": "nM"},
      {"measurement": "Tubulin polymerization", "setting": "[1]", "value": 0.7}
    ]},
    {"smiles": "CC(=O)O[C@H]1C(=O)[C@@]2(C)C([C@H](OC(=O)c3ccccc3)[C@]3(O)C[C@H](OC(=O)[C@H](O)[C@@H](NC(=O)c4ccccc4)c4ccccc4)C(C)=C1C3(C)C)[C@]1(OC(C)=O)CO[C@@H]1[C@@H](Br)[C@@H]2O", "note": "(some centres undefined)", "values": [
      {"measurement": "IC50", "setting": "HCT-116", "value": 2.6, "unit": "nM"},
      {"measurement": "Tubulin polymerization", "setting": "[1]", "value": 1.1}
    ]}
  ]
}
